US20070259888A1, “Novel Compounds” (ASTRAZENECA AB, priority 2006, published 2007)

Columns and labels:
[1] = biological target: T1, human M2 receptor (human Muscarinic receptor subtype 2) (Homo sapiens, UniProt P08172); assay: hM2 receptor GTPγS binding; type: biochemical; conditions: CHO membranes expressing hM2, GTPγ35S binding; for EC50: read-out: hM2_EC50
T1 construct: purchased Perkin-Elmer RBHM2M; host or cells: Chinese hamster ovary cells (CHO), membranes
T1 sequence (P08172 1-466): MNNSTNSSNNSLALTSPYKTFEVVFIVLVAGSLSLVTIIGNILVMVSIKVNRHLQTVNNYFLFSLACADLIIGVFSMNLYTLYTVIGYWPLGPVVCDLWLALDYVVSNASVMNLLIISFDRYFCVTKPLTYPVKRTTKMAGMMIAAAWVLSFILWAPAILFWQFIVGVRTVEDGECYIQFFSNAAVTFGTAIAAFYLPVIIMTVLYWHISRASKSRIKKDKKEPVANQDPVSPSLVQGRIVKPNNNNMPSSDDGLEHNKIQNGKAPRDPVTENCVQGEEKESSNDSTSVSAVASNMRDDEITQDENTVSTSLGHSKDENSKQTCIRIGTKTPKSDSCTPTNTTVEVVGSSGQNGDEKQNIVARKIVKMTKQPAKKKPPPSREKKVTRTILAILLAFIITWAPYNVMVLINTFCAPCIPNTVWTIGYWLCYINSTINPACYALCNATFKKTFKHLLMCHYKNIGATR
Description: hM2 Receptor GTPyS Binding
Membranes produced from Chinese hamster ovary cells (CHO) expressing the cloned human M2 receptor (human Muscarinic receptor subtype 2, gene bank access NM_000739), were obtained from Perkin-Elmer (RBHM2M). The membranes were thawed at 37° C., passed 3 times through a 23-gauge blunt-end needle, diluted in the GTPγS binding buffer (50 mM Hepes, 20 mM NaOH, 100 mM NaCl, 1 mM EDTA, 5 mM MgCl2, pH 7.4, 100 μM DTT). The EC50, IC50 and Emax of the compounds of the invention were evaluated from 10-point dose-response curves (three fold concentration range) done in 60 μl in 384-well non-specific binding surface plate (Corning). Ten microliters from the dose-response curves plate (5× concentration) were transferred to another 384 well plate containing the following: 10 μg of hM2 membranes, 500 μg of Flashblue beads (Perkin-Elmer) and GDP in a 25 μl volume. An additional 15 μl containing 3.3× (55000 dpm) of GTPγ^35S (0.4 nM final) were added to the wells resulting in a total well volume of 50 μl. Basal and maximal stimulated GTPγ^35S binding was determined in absence and presence of 30 μM of acetylcholine agonist. The membranes/beads mix were pre-incubated for 15 minutes at room temperature with 25 μM GDP prior to distribution in plates (12.5 μM final). The reversal of acetylcholine-induced stimulation (2 μM final) of GTPγ^35S binding was used to assay the antagonist properties (IC50) of the compounds. The plates were incubated for 60 minutes at room temperature with shaking, then centrifuged at 2000 rpm for 5 minutes. The radioactivity (cpm) was counted in a Trilux (Perkin-Elmer).
Values of EC50, IC50 and Emax were obtained using sigmoidal fits of a non-linear curve-fitting program (XLfit version 5.0.6 from ID Business Solutions Limited, Guildford, UK) of percent-stimulated GTPγ^35S binding vs. log (molar ligand).
All EC50 and IC50 values are reported as geometric means of ‘n’ independent experiments. […] The IC50 was the concentration of the compound of the invention at which 50% inhibition of acetylcholine GTPγ^35S binding stimulation has been observed.

[2] = biological target: T2, hM1 (human Muscarinic receptor subtype 1) (Homo sapiens, UniProt P11229); assay: Human M1 calcium mobilization FLIPR assay; type: cell-based; conditions: CHO cells expressing hM1, FLIPR; for EC50: read-out: hM1EC50; for Emax: read-out: hM1Emax
T2 construct: expressed in transfected cells; host or cells: CHO cells (chinese hamster ovary cells, ATCC)
T2 sequence (P11229 1-460): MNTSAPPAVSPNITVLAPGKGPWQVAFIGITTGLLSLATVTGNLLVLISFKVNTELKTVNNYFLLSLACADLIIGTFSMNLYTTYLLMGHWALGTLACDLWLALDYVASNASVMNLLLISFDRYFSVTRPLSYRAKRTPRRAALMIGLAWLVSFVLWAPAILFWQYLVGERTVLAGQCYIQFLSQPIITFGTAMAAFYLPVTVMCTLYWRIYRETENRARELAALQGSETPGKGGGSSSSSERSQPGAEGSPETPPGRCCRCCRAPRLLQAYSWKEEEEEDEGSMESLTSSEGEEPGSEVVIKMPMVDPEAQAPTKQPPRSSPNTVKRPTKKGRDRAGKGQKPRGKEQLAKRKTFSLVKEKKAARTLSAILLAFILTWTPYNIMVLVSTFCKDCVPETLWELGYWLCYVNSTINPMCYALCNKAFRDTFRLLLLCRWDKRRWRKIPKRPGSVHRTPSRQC
Description: The compound activity in the present invention (EC50 or IC50) was measured using a 384 plate-based imaging assay that monitors drug induced intracellular Ca^2+ release in whole cells. Activation of hM1 (human Muscarinic receptor subtype 1, gene bank access NM_000738), rM1 (rat Muscarinic receptor subtype 1, gene bank access NM_080773), hM3 (human Muscarinic receptor subtype 3, gene bank access NM_000740NM_000740) and hM5 (human Muscarinic receptor subtype 5, gene bank access NM_0121258) receptors expressed in CHO cells (chinese hamster ovary cells, ATCC) was quantified in a Molecular Devices FLIPR II™ instrument as an increase in fluorescent signal. Inhibition of hM3 and hM5 by compounds was determined by the decrease in fluorescent signal in response to 2 nM acetylcholine activation.
CHO cells were plated in 384-black polylysine coated plate (Costar) at 8000 cells/well/50 μl for 24 hours or 4000 cells/well for 48 hours in a humidified incubator (5% CO2 and 37° C.) in DMEM/F12 medium without selection agent. Prior to the experiment the cell culture medium was removed from the plates by inversion. A loading solution of 30 μl of Hank's balanced salt solution, 10 mM Hepes and 2.5 mM Probenicid at Ph 7.4 (Cat no. 311-520-VL, Wisent) with 2 μM calcium indicator dye (FLUO-3AM, Molecular Probes F14202) was added to each well. Plates were incubated at 37° C. for 60 minutes prior to start the experiment. The incubation was terminated by washing the cells four times in assay buffer, leaving a residual 25 μl buffer per well. Cell plates were then transferred to the FLIPR, ready for compound additions.
The day of experiment, acetylcholine and compounds were diluted in three-fold concentration range (10 points serial dilution) for addition by FLIPR instrument. For all calcium assays, a baseline reading was taken for 30 seconds followed by the addition of 12.5 μl (25 μl for hM1 and rM1) of compounds, resulting in a total well volume of 37.5 μl (50 μl for hM1 and rM1). Data were collected every 1.6 seconds for 300 seconds. For hM3 and hM5 an additional 12.5 μl of acetylcholine (2 nM final) was added at 300 seconds. After this addition of acetylcholine (producing a final volume of 50 μl), the FLIPR continued to collect data every 2 seconds for 240 seconds. The fluorescence emission was read using filter 1 (emission 520-545 nm) by the FLIPR on board CCD camera.
Calcium mobilization output data were calculated as the maximal relative fluorescence unit (RFU) minus the minimal value for both compound and agonist reading frame (except for hM1 and rM1 using only the maximal RFU). Data were analyzed using sigmoidal fits of a non-linear curve-fitting program (XLfit version 5.0.6 from ID Business Solutions Limited, Guildford, UK). All EC50 and IC50 values are reported as geometric means of ‘n’ independent experiments.

Structure (SMILES)	Emax [1]	EC50 [1]	EC50 [2]	Emax [2]
CCOC[C@@H]1CCCN(C[C@H]2CCCC[C@@H]2NC(=O)c2ccc(CNS(C)(=O)=O)cc2)C1 [N-((1S,2R)-2-{[(3R)-3-(ethoxymethyl)piperidin-1-yl]methyl}cyclohexyl)-4-{[(methylsulfonyl)amino]methyl}benzamide]	34%	1340 nM	20 nM	95%
CCOC[C@@H]1CCCN(C[C@H]2CCCC[C@@H]2NC(=O)c2ccc(-n3cnnn3)cc2)C1 [N-((1S,2R)-2-{[(3R)-3-(ethoxymethyl)piperidin-1-yl]methyl}cyclohexyl)-4-(1H-tetrazol-1-yl)benzamide]	27%	1210 nM	9 nM	95%
CCCCC1CCCN(C[C@@H]2CCCC[C@H]2NC(=O)CCc2ccc(Cl)cc2)C1 (mixture of isomers)	38%	1230 nM	174 nM	86%
CCOC[C@@H]1CCCN(C[C@H]2CCCC[C@@H]2NC(=O)CNC(C)=O)C1			322 nM	91%
CCOC[C@@H]1CCCN(C[C@H]2CCCC[C@@H]2NC(=O)c2ccc(CNS(=O)(=O)C3CC3)cc2)C1	40%	1430 nM	11 nM	102%
CCCCC1CCCN(C[C@@H]2CCCC[C@H]2NC(=O)c2ccc(CN(CC)CC)cc2)C1 (mixture of isomers)	2%	165 nM	103 nM	94%
CCO[C@@H]1CCCN(C[C@H]2CCCC[C@@H]2NC(=O)c2cnccn2)C1			1500 nM	76%
O=C(N[C@H]1CCCC[C@@H]1CN1CCCCC1)c1ccc(-n2cccn2)nc1 [N-[(1S,2R)-2-(piperidin-1-ylmethyl)cyclohexyl]-6-(1H-pyrazol-1-yl)nicotinamide]	0%	> 30000 nM	26 nM	82%
CCOC[C@@H]1CCCN(C[C@H]2CCCC[C@@H]2NC(=O)C2CCc3ccccc3O2)C1 (stereo partly drawn) [N-((1S,2R)-2-{[(3R)-3-(ethoxymethyl)piperidin-1-yl]methyl}cyclohexyl)chromane-2-carboxamide]	54%	570 nM	55 nM	98%
CCOC[C@@H]1CCCN(C[C@H]2CCCC[C@@H]2NC(=O)c2ccc(N3CCCC3)nc2)C1 [N-((1S,2R)-2-{[(3R)-3-(ethoxymethyl)piperidin-1-yl]methyl}cyclohexyl)-6-pyrrolidin-1-ylnicotinamide]	60%	107 nM	41 nM	91%
O=C(N[C@H]1CCCC[C@@H]1CN1CCCC(c2ccccc2)C1)c1ccc(-n2cccn2)nc1 (stereo partly shown)			393 nM	105%
CCOCC1CCCN(C[C@@H]2CCCC[C@H]2NC(=O)c2ccc(-c3cnco3)cc2)C1 (mixture of isomers)	25%	5480 nM	17 nM	97%
CCOC[C@@H]1CCCN(C[C@H]2CCCC[C@@H]2NC(=O)c2ccc3c(c2)OCCN3C)C1 [N-((1S,2R)-2-{[(3R)-3-(ethoxymethyl)piperidin-1-yl]methyl}cyclohexyl)-4-methyl-3,4-dihydro-2H-1,4-benzoxazine-7-carboxamide]	0%	> 30000 nM	152 nM	85%
CCOC[C@@H]1CCCN(C[C@H]2CCCC[C@@H]2NC(=O)c2ccccc2)C1 [N-((1S,2R)-2-{[(3R)-3-(ethoxymethyl)piperidin-1-yl]methyl}cyclohexyl)benzamide]	34%	1910 nM	119 nM	74%
CCOC[C@@H]1CCCN(C[C@H]2CCCC[C@@H]2NC(=O)c2cnc(C)cc2C)C1 [N-((1S,2R)-2-{[(3R)-3-(ethoxymethyl)piperidin-1-yl]methyl}cyclohexyl)-4,6-dimethylnicotinamide]			504 nM	54%
CCOC[C@@H]1CCCN(C[C@H]2CCCC[C@@H]2NC(=O)c2ccc(CN(C(C)=O)C(C)=O)cc2)C1 [4-[(diacetylamino)methyl]-N-((1S,2R)-2-{[(3R)-3-(ethoxymethyl)piperidin-1-yl]methyl}cyclohexyl)benzamide]	18%	3300 nM	103 nM	91%
CCOC[C@@H]1CCCN(C[C@H]2CCCC[C@@H]2NC(=O)c2cc3nc(C)cc(C)n3n2)C1 [N-((1S,2R)-2-{[(3R)-3-(ethoxymethyl)piperidin-1-yl]methyl}cyclohexyl)-5,7-dimethylpyrazolo[1,5-a]pyrimidine-2-carboxamid]	0%	> 30000 nM	22 nM	82%
C=CCO[C@@H]1CCCN(C[C@H]2CCCC[C@@H]2NC(=O)c2ccc(-n3cccn3)nc2)C1 [N-((1S,2R)-2-{[(3R)-3-(allyloxy)piperidin-1-yl]methyl}cyclohexyl)-6-(1H-pyrazol-1-yl)nicotinamide]	50%	4450 nM	33 nM	97%
